In US4206215A, “Antimicrobial bis-[4-(substituted-amino)-1-pyridinium]alkanes” (Sterling Drug Inc., priority 1977, dated 1980):
Where two headings read alike, the source gives them in different places.

What was measured:
A. niger 16404 = experiment: In vitro antifungal activity, MIC (modified Autotiter method); assay type: cell-based, Aspergillus niger; details: Aspergillus niger, 16404, 20 h, read-out: MIC A. niger 16404
Procedure: (§1) The antibacterial and antifungal activity of representative examples of the compounds of Formula I was determined using a modification of the Autotiter method described by Goss, et al. Applied Microbiology 16 (9) 1,414-1,416 (1968) in which a 1,000 mcg./ml. solution of the test compound is prepared. To the first cup of the Autotray is added 0.1 ml. of the test solution. Activation of the Autotiter initiates a sequence of operations by which 0.05 ml. of the test compound solution is withdrawn from the cup by a Microtiter transfer loop and diluted in 0.05 ml. of sterile water. Following this operation, 0.05 ml. of inoculated double-strength semisynthetic medium (glucose) is added automatically to each cup. The overall operation results in final drug concentrations ranging from 500 to 0.06 mcg./ml. in twofold decrements. […] The compounds were thus tested as solutions against a variety of gram positive and gram negative bacteria including Staphylococcus aureus, Proteus mirabilis, Escherichia coli, Klebsiella pneumoniae, Pseudomonas aeruginosa, Streptococcus pyogenes, and against such fungi as Aspergillus niger, Candida albicans and Trichophyton mentagrophytes.

Ps. aerug. MGH-2 = experiment: In vitro antibacterial activity, MIC (modified Autotiter method); assay type: cell-based, Pseudomonas aeruginosa; details: Pseudomonas aeruginosa, 20 h, read-out: MIC Ps. aerug. MGH-2
Procedure: as §1

C. albicans Wisc. = experiment: In vitro antifungal activity, MIC (modified Autotiter method); assay type: cell-based, Candida albicans; details: Candida albicans, 20 h, 18-20 hours at 37° C.; read-out: MIC C. albicans Wisc.
Procedure: as §1

C. albicans 10231 = experiment: as above; assay type: cell-based, Candida albicans; details: Candida albicans, 10231, 20 h, read-out: MIC C. albicans 10231
Procedure: as §1

S. Aureus Smith = experiment: In vitro antibacterial activity, MIC (modified Autotiter method); assay type: cell-based, Staphylococcus aureus; details: Staphylococcus aureus, 20 h, read-out: MIC S. Aureus Smith
Procedure: as §1

P. mirab. MGH-1 = experiment: as above; assay type: cell-based, Proteus mirabilis; details: Proteus mirabilis, 20 h, read-out: MIC P. mirab. MGH-1
Procedure: as §1

K. pneum. 39645 = experiment: as above; assay type: cell-based, Klebsiella pneumoniae; details: Klebsiella pneumoniae, 20 h, read-out: MIC K. pneum. 39645
Procedure: as §1

S. pyogen. C203 = experiment: as above; assay type: cell-based, Streptococcus pyogenes; details: Streptococcus pyogenes, 20 h, read-out: MIC S. pyogen. C203
Procedure: as §1

E. coli Vogel = experiment: as above; assay type: cell-based, Escherichia coli; details: Escherichia coli, 20 h, read-out: MIC E. coli Vogel
Procedure: as §1

E. coli 100/B22 = experiment: as above; assay type: cell-based, Escherichia coli; details: Escherichia coli, 100/B22, 20 h, 18-20 hours at 37° C.; read-out: MIC E. coli 100/B22
Procedure: as §1

E. coli AB1932-1 = experiment: as above; assay type: cell-based, Escherichia coli; details: Escherichia coli, AB19321, 20 h, 18-20 hours at 37° C.; read-out: MIC E. coli AB1932-1
Procedure: as §1

T. menta. 9129 = experiment: In vitro antifungal activity, MIC (modified Autotiter method); assay type: cell-based, Trichophyton mentagrophytes; details: Trichophyton mentagrophytes, 20 h, read-out: MIC T. menta. 9129
Procedure: as §1

MIC (A. niger 16404; 18-20 hours at 37° C.) [µg/mL] | MIC (Ps. aerug. MGH-2; 18-20 hours at 37° C.) [µg/mL] | MIC (C. albicans 10231; 18-20 hours at 37° C.) [µg/mL] | MIC (S. Aureus Smith; 18-20 hours at 37° C.) [µg/mL] | MIC (P. mirab. MGH-1; 18-20 hours at 37° C.) [µg/mL] | MIC (K. pneum. 39645; 18-20 hours at 37° C.) [µg/mL] | MIC (S. pyogen. C203; 18-20 hours at 37° C.) [µg/mL] | MIC (E. coli Vogel; 18-20 hours at 37° C.) [µg/mL] | MIC (T. menta. 9129; 18-20 hours at 37° C.) [µg/mL] | SMILES | also measured
500 | > 500 | > 500 | 125 | > 500 | > 500 | 62.5 | 250 | > 500 | Nc1cc[n+](CCCCCC[n+]2ccc(N)cc2)cc1 [IV, 1,6-bis-(4-amino-1-pyridinium)hexane dibromide, reference compound] | 
31.3 | > 62.5 | 31.3 | 1.95 | > 125 | > 62.5 | 1 | 62.5 | 3.9 | Nc1cc[n+](CCCCCCCCCCCC[n+]2ccc(N)cc2)cc1 [V, 1,12-bis-(4-amino-1-pyridinium)dodecane dibromide, reference compound] | 
250 | > 500 | 31.3 | 31.3 | > 500 | 500 | 7.8 | 250 | 15.6 | Nc1cc[n+](CCCCCCCCC[n+]2ccc(N)cc2)cc1 [VII, 1,9-bis-(4-amino-1-pyridinium)nonane dibromide, reference compound] | 

Continued, compound first:

SMILES | MIC (A. niger 16404; 18-20 hours at 37° C.) [µg/mL] | MIC (Ps. aerug. MGH-2; 18-20 hours at 37° C.) [µg/mL] | MIC (C. albicans 10231; 18-20 hours at 37° C.) [µg/mL] | MIC (S. Aureus Smith; 18-20 hours at 37° C.) [µg/mL] | MIC (P. mirab. MGH-1; 18-20 hours at 37° C.) [µg/mL] | MIC (K. pneum. 39645; 18-20 hours at 37° C.) [µg/mL] | MIC (S. pyogen. C203; 18-20 hours at 37° C.) [µg/mL] | MIC (E. coli Vogel; 18-20 hours at 37° C.) [µg/mL] | MIC (T. menta. 9129; 18-20 hours at 37° C.) [µg/mL] | also measured
CCCCCCCCNc1cc[n+](CCCCCCCCCCCC[n+]2ccc(NCCCCCCCC)cc2)cc1 [Example 45, 1,12-bis-[4-(octylamino)-1-pyridinium]dodecane dibromide] | 7.8 | 1.95 | 1 | 0.5 | 1.95 | 1 | 1 | 1.95 | 1 | MIC (C. albicans Wisc.): 3.9 µg/mL; MIC (E. coli 100/B22): 1.95 µg/mL; MIC (E. coli AB1932-1): 1.95 µg/mL
Nc1cc[n+](CCCC[n+]2ccc(N)cc2)cc1 [III, 1,4-bis-(4-amino-1-pyridinium)butane dibromide, reference compound] | 500 | > 500 | > 500 | 125 | > 500 | > 500 | 62.5 | 250 | 500 | 
Cc1cc(N)cc[n+]1CCCCCCCCC[n+]1ccc(N)cc1C [IX, 1,9-bis-(4-amino-2-methyl-1-pyridinium)nonane dibromide, reference compound] | 31.3 | > 500 | 31.3 | 3.9 | > 500 | 250 | 3.9 | 31.3 | 7.8 | 
CC(CCCCCCCCC[n+]1ccc(N)cc1)[n+]1ccc(N)cc1 (stereo not drawn) [VI, 1,10-bis-(4-amino-1-pyridinium)-1-methyldecane dibromide, reference compound] | 250 | > 500 | 31.3 | 15.6 | > 500 | 500 | 15.6 | 250 | 15.6 | 
Cc1cc(N)cc[n+]1CCCCCCCC[n+]1ccc(N)cc1C [VIII, 1,8-bis-(4-amino-2-methyl-1-pyridinium)octane dibromide, reference compound] |  |  |  |  |  |  |  |  |  | MIC (A. niger 16404): 125 µg/mL; MIC (Ps. aerug. MGH-2): > 500 µg/mL; MIC (C. albicans 10231): 125 µg/mL; MIC (S. Aureus Smith): 31.3 µg/mL; MIC (P. mirab. MGH-1): > 500 µg/mL; MIC (K. pneum. 39645): 500 µg/mL; MIC (S. pyogen. C203): 7.8 µg/mL; MIC (E. coli Vogel): > 250 µg/mL; MIC (T. menta. 9129): 15.6 µg/mL
